Data set [1] relates to amastigotes of L. (V.) braziliensis (MHOM/BR/94/H-3227). Also noted: method as in ref 18 Teixeira et al. As to conditions: 50 µg/mL, ref 18 Teixeira et al.; cited from earlier work.
Data set [2] deals with L. amazonensis promastigotes. Kind of data set: DNA fragmentation assay, agarose gel electrophoresis. The data set is classed as cell-based, Leishmania amazonensis. Particulars: IC50/24 h (lapachol 76.62 µg/mL, β-lapachone 1.63 µg/mL). Here is the method:
The presence of DNA fragmentation was evaluated by electrophoresis in agarose gel according to a previous study ([33]). L. amazonensis (1×10^6 promastigotes/mL) was incubated with the IC50 of compounds for 24 h. After validation of IC50 as mentioned above, pellets were re-suspended in digestion buffer (10 mM ethylenediamine tetraacetic acid [EDTA], 50 mM Tris-HCl [pH 8.0] and 0.5% sodium lauryl sulfate), to which 0.5 mg/mL proteinase K was added. The mixture was incubated for 3 h in […] and again for 1 h at 55°C in the presence of 0.1 mg/mL RNase A. DNA material was extracted by phenol/chloroform (1:1) treatment and was precipitated by adding 3 M sodium acetate and ice-cold ethanol (100%). After an overnight incubation at -20°C, the material was centrifuged (13270 g) for 30 min at 25°C temperature. Then, 2.5 volumes of ethanol (70%) were added to the pellet. The material was centrifuged (13270 g) for 15 min again and the pellet was collected, air dried, and re-suspended in Tris-EDTA buffer (50 µL, pH 8.0). DNA aliquots (10 µg) were electrophoresed on 2% agarose gel that contained ethidium bromide (0.5 µg/mL) using Tris-acetate-EDTA buffer (pH 8.0) for 45 min at 100 V and photographed under ultraviolet light. L. amazonensis untreated promastigotes were used as negative control of fragmentation (C-) and promastigotes treated with H2O2 as positive control (C+). […]

Data set [3] relates to L. amazonensis amastigotes. As to the kind of experiment: Activity on intracellular amastigotes in peritoneal macrophages (infection index). As to conditions: 24 h; for Inhibition of infection rate of amastigotes (infection reduction): vs untreated infected macrophages.
Protocol: (§1) The activity of lapachol and β-lapachone on intracellular amastigotes was made on peritoneal macrophages (5×10^5 per well). Cells were seeded onto round glass coverslips within 24-well plates in RPMI 1640 medium and incubated for 2 h at 37°C in 5% CO2. After that, the proportion of 6 parasites (L. amazonensis) per macrophage were added, and cultures were incubated for 4 h at 37°C in 5% CO2. Free parasites were removed by washing with RPMI 1640 medium. The infected macrophages were incubated with lapachol (82.28, 41.14, and 20.57 µg/mL) and β-lapachone (3.26, 1.63, and 0.815 µg/mL) for 24 h at 37°C. After the incubation time, the coverslips were removed, washed, stained with Fast Panoptic, and fixed on glass slides with Entellan. […] The experiments were done twice in triplicate, and treated uninfected cells were used as the cytotoxicity control and non-treated infected cells were used as the positive control of infection. The number of intracellular amastigotes was determined by counting 200 macrophages by concentration in an optical microscope (binocular biological microscope, mod. BA310E LED, Motic, Spain). The infection index was calculated by multiplying the percentage of infected macrophages by the number of parasites per macrophages ([29]).
The test system of data set [4] is L. amazonensis promastigotes. Kind of data set: Externalized phosphatidylserine, annexin V-FITC/PI. The class given is cell-based, Leishmania amazonensis. As to conditions: lapachol 76.62 µg/mL, β-lapachone 1.63 µg/mL; for Annexin labeling (AnV+, PI-): 4 h; for Annexin labeling (AnV+, PI-), change on longer incubation: 24 h. Here is the method:
[…] After treatment, the cells were centrifuged (901 g for 10 min) at room temperature and washed in PBS. According to the manufacturer's instructions, annexin V-FITC and PI (Sigma-Aldrich) were added. Data were acquired using the BD FacsCalibur™ flow cytometer (FL1 vs FL2) and CellQuest Pro software, with a total of 10,000 events acquired for analysis of results.

Data set [5] has as its system L. amazonensis amastigotes.
Protocol: as §1
Data set [6] has as its system L. amazonensis (strains MHOM/BR/1989/ BA199). More on the design: method as in ref 23 Guimarães et al. Particulars: 72 h, strain MHOM/BR/1989/BA199, ref 23 Guimarães et al.; cited from earlier work.
Data set [7] deals with Leishmania major promastigotes. More on the design: method as in ref 24 Moreno et al. As to conditions: 48 h of incubation, ref 24 Moreno et al.; cited from earlier work.
Data set [8] is described as follows: Macrophage cytotoxicity, XTT, J774A.1. Particulars: mouse, J774A.1 macrophages. In general terms: Formazan colour is commonly taken as a measure of viable cells.
Setting [9] is: Leishmania amazonensis, Macrophage, read-out: Inhibition of infection rate of amastigotes (infection reduction).

A word on the inhibition: it is the share of the control response that was lost under treatment. Broadly, the IC50 is the concentration needed to halve the response being measured. One may read the CC50 as the concentration at which the toxic effect on the cells reaches its halfway point. A higher CC50 goes with lower toxicity to the cells.

Values after ≈ are worked out from the molar mass of the structure shown.

“4-hydroxy-3-(3-methylbut-2-enyl)naphthalene-1,2-dione [lapachol]”: the “Inhibition of the infection rate of amastigotes” value in data set [1] is recorded as 88.8%. Besides, in data set [2], the DNA fragmentation entry is “promoted DNA fragmentation”. In addition, the “Inhibition of infection rate of amastigotes (infection reduction)” value in data set [3] (20.57 µg/mL) was 34.95%. Besides, the “Inhibition of infection rate of amastigotes (infection reduction)” value in data set [3] (82.28 µg/mL) came to 83.11%. Also, in data set [4], the “Annexin labeling (AnV+, PI-)” value is 8.57% and the “Annexin labeling (AnV+, PI-), change on longer incubation” value is “not possible to observe the increase”. The compound further showed an inhibition in data set [5] of 57.6%. Further, in data set [6], the half-maximal inhibitory concentration (IC50) is 102000 nM.
`CC1(C)CCC2=C(O1)c1ccccc1C(=O)C2=O` [β-lapachone, 2,2-dimethyl-3,4-dihydrobenzo[h]chromene-5,6-dione]: the DNA fragmentation result in data set [2] is reported as “promoted DNA fragmentation”. Also, in data set [3] (setting [9]), the inhibition at 0.815 µg/mL is 80.2%, the inhibition at 1.63 µg/mL came to 83.2% and the inhibition at 3.26 µg/mL was found to be 78.5%. In addition, in data set [4], the “Annexin labeling (AnV+, PI-)” value was found to be 9.03% and the “Annexin labeling (AnV+, PI-), change on longer incubation” value is given as “not possible to observe the increase”. Besides, the IC50 in data set [6] is 1390 nM. Also, the IC50 in data set [7] is 1500 ± 700 nM. For the same compound, in data set [8], it took 3.18 ± 0.04 µg/mL (≈ 13.1 µM) to reach half-maximal cytotoxicity (CC50 at 24 h).

Source of the values: paper PMC10229078, “In vitro effects of lapachol and β-lapachone against Leishmania amazonensis” (Brazilian Journal of Medical and Biological Research, 2023).
